Drawing on US12466803B2 (priority 2021, dated 2025), this text covers IC50 for 38 compounds.

What is called IC50 is the point on the concentration scale where inhibition reaches its midpoint.

The first assay has as its system phospho (S293) BCKDHA in human skeletal myocytes. The experiment in a line: Phospho BCKDHA Alpha Surefire Cell Assay. Conditions: 60 minutes with compound, geometric mean. The class given is cell-based.
Turning to `COc1c(F)cc(Cl)c(-c2c(C(=O)O)sc3cc(F)ccc23)c1F` (atropisomer, axis not shown) [Example 15, 3-(6-Chloro-2,4-difluoro-3-methoxyphenyl)-6-fluoro-1-benzothiophene-2-carboxylic acid, ATROP-1], the IC50 is over 60000 nM.

As to `COc1c(F)cc(Cl)c(-c2c(C(=O)O)sc3cc(F)ccc23)c1F` (atropisomer, axis not shown) [Example 16, 3-(6-Chloro-2,4-difluoro-3-methoxyphenyl)-6-fluoro-1-benzothiophene-2-carboxylic acid, ATROP-2], the IC50 came out at 15 nM.

Consider `C[C@@H]1CCc2cc(-c3c(C(=O)O)sc4cc(Cl)ccc34)ccc2O1` (single isomer, unassigned) [Example 42, 6-chloro-3-(2-methyl-3,4-dihydro-2H-1-benzopyran-6-yl)-1-benzothiophene-2-carboxylic acid, ENANT-2], for which the IC50 is over 24000 nM.

For the compound `C[C@@H]1CCc2cc(-c3c(C(=O)O)sc4cc(F)ccc34)ccc2O1` (single isomer, unassigned) [Example 44, 6-fluoro-3-(2-methyl-3,4-dihydro-2H-1-benzopyran-6-yl)-1-benzothiophene-2-carboxylic acid, ENANT-2], the IC50 was over 56000 nM.

Consider `C[C@@H]1CCc2cc(-c3c(C(=O)O)sc4ccccc34)ccc2O1` (single isomer, unassigned) [Example 45, 3-(2-methyl-3,4-dihydro-2H-1-benzopyran-6-yl)-1-benzothiophene-2-carboxylic acid, ENANT-1], for which the IC50 was over 60000 nM.

As for `C[C@@H]1CCc2cc(-c3c(C(=O)O)sc4ccccc34)ccc2O1` (single isomer, unassigned) [Example 46, 3-(2-methyl-3,4-dihydro-2H-1-benzopyran-6-yl)-1-benzothiophene-2-carboxylic acid, ENANT-2], the IC50 was over 29000 nM.

Turning to `C[C@@H]1CCc2cc(-c3c(C(=O)O)sc4cc(F)ccc34)c(F)cc2O1` (single isomer, unassigned) [Example 69, 6-fluoro-3-(7-fluoro-2-methyl-3,4-dihydro-2H-1-benzopyran-6-yl)-1-benzothiophene-2-carboxylic acid, ENANT-2], the IC50 stood at 3600 nM.

On to `C[C@@H]1CCc2c(ccc(-c3c(C(=O)O)sc4cc(F)ccc34)c2F)O1` (single isomer, unassigned) [Example 77, 6-fluoro-3-(5-fluoro-2-methyl-3,4-dihydro-2H-1-benzopyran-6-yl)-1-benzothiophene-2-carboxylic acid, ENANT-1], for which the IC50 came to 8600 nM.

For `C[C@@H]1CCc2c(ccc(-c3c(C(=O)O)sc4cc(F)ccc34)c2F)O1` (single isomer, unassigned) [Example 78, 6-fluoro-3-(5-fluoro-2-methyl-3,4-dihydro-2H-1-benzopyran-6-yl)-1-benzothiophene-2-carboxylic acid, ENANT-2], the IC50 was 3900 nM.

Staying with this assay, now noted: Homo sapiens, 1 h, 60 minutes with compound, geometric mean.
Regarding `C[C@@H]1CCc2cc(-c3c(C(=O)O)sc4cc(Cl)ccc34)ccc2O1` (single isomer, unassigned) [Example 41, 6-chloro-3-(2-methyl-3,4-dihydro-2H-1-benzopyran-6-yl)-1-benzothiophene-2-carboxylic acid, ENANT-1], the IC50 is over 40000 nM.

Consider `C[C@@H]1CCc2cc(-c3c(C(=O)O)sc4cc(F)ccc34)ccc2O1` (single isomer, unassigned) [Example 43, 6-fluoro-3-(2-methyl-3,4-dihydro-2H-1-benzopyran-6-yl)-1-benzothiophene-2-carboxylic acid, ENANT-1], for which the IC50 is over 60000 nM.

For the compound `C[C@H]1CCc2ccc(-c3c(C(=O)O)sc4cc(F)ccc34)cc2O1` (single isomer, unassigned) [Example 57, 6-fluoro-3-(2-methyl-3,4-dihydro-2H-1-benzopyran-7-yl)-1-benzothiophene-2-carboxylic acid, ENANT-1], the IC50 is over 60000 nM.

In the case of `C[C@@H]1CCc2cc(-c3c(C(=O)O)sc4cc(F)ccc34)c(F)cc2O1` (single isomer, unassigned) [Example 68, 6-fluoro-3-(7-fluoro-2-methyl-3,4-dihydro-2H-1-benzopyran-6-yl)-1-benzothiophene-2-carboxylic acid, ENANT-1], the IC50 worked out at 6000 nM.

For the compound `C[C@@H]1CCc2cc(-c3c(C(=O)O)sc4cc(F)ccc34)cc(F)c2O1` (single isomer, unassigned) [Example 72, 6-fluoro-3-(8-fluoro-2-methyl-3,4-dihydro-2H-1-benzopyran-6-yl)-1-benzothiophene-2-carboxylic acid, ENANT-1], the IC50 was found to be 4500 nM.

In the case of `O=C(O)c1sc2cc(F)ccc2c1-c1c(F)cc2c(c1F)CCCO2` [Example 1, 3-(5,7-Difluoro-3,4-dihydro-2H-1-benzopyran-6-yl)-6-fluoro-1-benzothiophene-2-carboxylic acid], the IC50 turned out to be 430 nM.

With `CC1CCc2c(cc(F)c(-c3c(C(=O)O)sc4cc(F)ccc34)c2F)O1` (centres unmarked) [Example 3, 3-(5,7-Difluoro-2-methyl-3,4-dihydro-2H-1-benzopyran-6-yl)-6-fluoro-1-benzothiophene-2-carboxylic acid], the IC50 is 1000 nM.

Regarding `O=C(O)c1sc2c(F)c(F)ccc2c1-c1ccccc1` [Example 4, 6,7-Difluoro-3-phenyl-1-benzothiophene-2-carboxylic acid], the concentration for half-maximal inhibition (IC50) was over 60000 nM.

For `O=C(O)c1sc2cc(F)cc(F)c2c1-c1ccccc1` [Example 5, Ammonium 4,6-difluoro-3-phenyl-1-benzothiophene-2-carboxylate], the IC50 was over 60000 nM.

Turning to `O=C(O)c1sc2cc(F)ccc2c1-c1cc(Cl)c(Cl)cc1F` [Example 7, 3-(4,5-Dichloro-2-fluorophenyl)-6-fluoro-1-benzothiophene-2-carboxylic acid], the IC50 was 94 nM.

With `Cc1ncc(F)c(-c2c(C(=O)O)sc3cc(F)ccc23)c1F` [Example 8, 3-(3,5-Difluoro-2-methylpyridin-4-yl)-6-fluoro-1-benzothiophene-2-carboxylic acid], the IC50 was found to be 720 nM.

With `Cc1c(F)c(F)cc(-c2c(C(=O)O)sc3cc(Cl)ccc23)c1F` [Example 10, 6-Chloro-3-(2,4,5-trifluoro-3-methylphenyl)-1-benzothiophene-2-carboxylic acid], the IC50 came to 66 nM.

As to `COc1c(F)c(F)cc(-c2c(C(=O)O)sc3cc(Cl)ccc23)c1F` [Example 12, Ammonium 6-chloro-3-(2,4,5-trifluoro-3-methoxyphenyl)-1-benzothiophene-2-carboxylate], the IC50 turned out to be 110 nM.

For `COc1c(F)ccc(-c2c(C(=O)O)sc3cc(Cl)ccc23)c1F` [Example 13, 6-Chloro-3-(2,4-difluoro-3-methoxyphenyl)-1-benzothiophene-2-carboxylic acid], the IC50 turned out to be 48 nM.

Consider `COc1c(F)cc(Cl)c(-c2c(C(=O)O)sc3cc(F)ccc23)c1F` [Example 14, 3-(6-Chloro-2,4-difluoro-3-methoxyphenyl)-6-fluoro-1-benzothiophene-2-carboxylic acid], for which the IC50 was determined as 23 nM.

Turning to `COc1c(F)c(F)cc(-c2c(C(=O)O)oc3cc(F)ccc23)c1F` [Example 17, 6-Fluoro-3-(2,4,5-trifluoro-3-methoxyphenyl)-1-benzofuran-2-carboxylic acid], the IC50 came to 880 nM.

With `COc1c(F)c(F)cc(-c2c(C(=O)O)oc3cc(Cl)ccc23)c1F` [Example 18, 6-Chloro-3-(2,4,5-trifluoro-3-methoxyphenyl)-1-benzofuran-2-carboxylic acid], the IC50 stood at 570 nM.

Take `O=C(O)c1sc2cc(F)ccc2c1-c1ccc(F)c(F)c1F` [Example 19, 6-Fluoro-3-(2,3,4-trifluorophenyl)-1-benzothiophene-2-carboxylic acid]: the IC50 was 4400 nM.

Take `O=C(O)c1sc2cc(Cl)ccc2c1-c1ccc(Cl)c(F)c1` [Example 20, 6-Chloro-3-(4-chloro-3-fluorophenyl)-1-benzothiophene-2-carboxylic acid]: the IC50 turned out to be 2400 nM.

On to `O=C(O)c1sc2cc(F)ccc2c1-c1cc(F)c(F)c(O)c1F` [Example 22, 6-Fluoro-3-(2,4,5-trifluoro-3-hydroxyphenyl)-1-benzothiophene-2-carboxylic acid], for which the IC50 is 23000 nM.

Regarding `O=C(O)c1sc2cc(F)ccc2c1-c1cc(F)c(F)c(Cl)c1F` [Example 24, 3-(3-Chloro-2,4,5-trifluorophenyl)-6-fluoro-1-benzothiophene-2-carboxylic acid], the IC50 is 400 nM.

Regarding `COc1cccc(-c2c(C(=O)O)sc3ccccc23)c1F` [Example 26, 3-(2-fluoro-3-methoxyphenyl)-1-benzothiophene-2-carboxylic acid], the IC50 was 5500 nM.

As to `O=C(O)c1sc2cc(F)ccc2c1-c1ccc2c(c1)CCCO2` [Example 28, 3-(3,4-dihydro-2H-1-benzopyran-6-yl)-6-fluoro-1-benzothiophene-2-carboxylic acid], the IC50 stood at 4900 nM.

For `COc1cccc(-c2c(C(=O)O)sc3cc(Cl)ccc23)c1F` [Example 30, 6-chloro-3-(2-fluoro-3-methoxyphenyl)-1-benzothiophene-2-carboxylic acid], the IC50 stood at 2600 nM.

With `O=C(O)c1sc2cc(F)ccc2c1-c1ccc2c(c1F)CCCO2` [Example 32, 6-fluoro-3-(5-fluoro-3,4-dihydro-2H-1-benzopyran-6-yl)-1-benzothiophene-2-carboxylic acid], the IC50 is 1900 nM.

In the case of `O=C(O)c1sc2cc(Cl)ccc2c1-c1ccc(F)c(F)c1F` [Example 33, 6-chloro-3-(2,3,4-trifluorophenyl)-1-benzothiophene-2-carboxylic acid], the IC50 amounted to 1100 nM.

On to `CCOc1ccc(-c2c(C(=O)O)sc3cc(F)ccc23)c(F)c1F` [Example 34, 3-(4-ethoxy-2,3-difluorophenyl)-6-fluoro-1-benzothiophene-2-carboxylic acid], for which the IC50 is over 60000 nM.

`COc1ccc(-c2c(C(=O)O)sc3cc(F)ccc23)c(F)c1F` [Example 35, 3-(2,3-difluoro-4-methoxyphenyl)-6-fluoro-1-benzothiophene-2-carboxylic acid]: the IC50 is over 60000 nM.

`COc1cc(-c2c(C(=O)O)sc3cc(F)ccc23)c(F)cc1Cl` [Example 36, 3-(4-chloro-2-fluoro-5-methoxyphenyl)-6-fluoro-1-benzothiophene-2-carboxylic acid]: the IC50 is 3000 nM.
